Experimental data published in US20150284360A1, “AMIDE DERIVATIVES OF ANILINE-RELATED COMPOUNDS AND COMPOSITIONS THEREOF” (C&C BIOPHARMA, LLC, priority 2014, published 2015).

Columns and labels:
[1] = In vivo conversion of prodrug Lys-CC30.2HCl to parent drug CC30 in a rat after intravenous administration (plasma, HPLC-MS); parameters: species or system Sprague-Dawley rat; conditions: for HPLC-MS Peak Area of Prodrug, Lys-CC30•2HCl in the rat: rat plasma, Lys-CC30.2HCl 2 mg/kg intravenous
Method: A Male Sprague-Dawley rat weighing 200-220 g was used to study the pharmacokinetics of the prodrug Lys-CC30.2HCl. Food was prohibited for 12 hours before the experiment, but water was freely available. Blood samples (0.2 ml) were collected through orbital venous plexus blood into heparinized 1.5 ml polyethene tubes at 0, 2, 5, 10, 15, 20, 30, 45 and 60 minute time points after the intravenous administration of Lys-CC30.2HCl (2 mg/kg). The samples were immediately centrifuged at 3000 g for 10 minutes. The plasma obtained (100 μl) was stored at −20° C. until analyzed. Plasma Lys-CC30.2HCl and parent drug CC30 concentrations in the collected blood samples were analyzed by HPLC-MS.
The parent drug was detected in the rat for at least 60 minutes, whereas the prodrug was no longer detected after 20 minutes (Table 11)(FIG. 10B).

[2] = In vitro conversion of prodrug Lys-CC30.2HCl to parent drug CC30 in rat plasma (HPLC-MS); format: in vitro ADME; conditions: rat plasma
Method: Lys-CC30.2HCl (2.53 mg) was dissolved in 200 μl of water to obtain an aqueous solution concentration of 12.6 mg/ml. 4 μl of the Lys-CC30.2HCl solution was thoroughly mixed with 100 μl of rat plasma. This mixture was divided into 10 aliquots (10 μl) placed in 1.5 ml tubes. One tube was placed on ice and was used as the 0 time point. The other 9 samples were placed in an incubator at 37° C. At 5, 10, 30, 60, 120, and 240 minutes, a tube was taken out from incubation and placed on ice to stop or slow down the reaction. The samples were diluted with water (50-fold), mixed, and pelleted by centrifugation at 4° C. and 14,000 rpm for 5 min. The supernatant (˜200-300 μl) was used for HPLC-MS analysis. The % conversion was calculated by dividing the peak area of the parent drug by the peak area of the prodrug at time 0, and then multiplying by 100 (Table 10).
After 60 minutes of incubation, almost half (44.7%) of the Lys-CC30.2HCl prodrug converted to CC30 (Table 10).

[3] = Solubility of a compound in water; format: physicochemical; conditions: compound added until saturated
Method: Solubility of a compound was obtained by adding the compound into water of known volume (e.g. 1 mL) until saturated, measuring the amount of the compound added, and obtaining the solubility of the compound in water (mg/mL) (Table 9).

[4] = Cyclization in simulated gastric fluid (SGF), acidic condition; format: physicochemical; conditions: SGF pH=1.3 with pepsin, 37° C., 4 hours
Method: Simulated gastric fluid (SGF) was prepared by thoroughly mixing diluted hydrochloric acid (16.4 ml), water (800 ml), and 10 g of pepsin together, and then bring the volume up to 1000 ml with water (pH=1.3). Diluted hydrochloric acid was prepared by mixing 234 ml of concentrated hydrochloric acid with water to a final volume of 1000 ml. Lys-CC30.2HCl (2.53 mg) or CC30 were separately dissolved in 200 μl of water to obtain an aqueous solution concentration of 12.6 mg/ml. 4 μl of the Lys-CC30.2HCl solution and the CC30 solution were thoroughly mixed with 1 ml of SGF in separate tubes. The mixtures were placed in an incubator at 37° C. for 4 hours. The samples were diluted with water 50-fold, mixed, and pelleted by centrifugation at 4° C. and 14,000 rpm for 5 min. The supernatants (˜200-300 μl) were used for HPLC-MS analysis.

## Cl.Cl.NCCCC[C@H](N)C(=O)Nc1ccccc1NC(=O)CCCCCC(=O)Nc1cccc(Br)c1 [Lys-CC30•2HCl]
[1]; after Lys-CC30.2HCl 2 mg/kg intravenous
  Time after which the prodrug was no longer detected in the rat: 20 min
[1]; after injection of Lys-CC30.2HCl 2 mg/kg intravenous, time zero
  Conversion in the rat to the parent drug CC30 (in words): immediately started converting
[1]; 0 min
  HPLC-MS Peak Area of Prodrug, Lys-CC30•2HCl in the rat: 5199661
[1]; 2 min
  HPLC-MS Peak Area of Prodrug, Lys-CC30•2HCl in the rat: 2388965
[1]; 5 min
  HPLC-MS Peak Area of Prodrug, Lys-CC30•2HCl in the rat: 838012
[1]; 10 min
  HPLC-MS Peak Area of Prodrug, Lys-CC30•2HCl in the rat: 173555
[1]; 15 min
  HPLC-MS Peak Area of Prodrug, Lys-CC30•2HCl in the rat: 40200
[1]; 20 min
  HPLC-MS Peak Area of Prodrug, Lys-CC30•2HCl in the rat: 8674
[2]; 37° C., 5 min
  % Conversion of prodrug to CC30: 14.2%
  HPLC-MS Peak Area of Prodrug, Lys-CC30•2HCl: 5900784
[2]; 37° C., 10 min
  % Conversion of prodrug to CC30: 18.3%
  HPLC-MS Peak Area of Prodrug, Lys-CC30•2HCl: 5623041
[2]; 37° C., 30 min
  % Conversion of prodrug to CC30: 33.0%
  HPLC-MS Peak Area of Prodrug, Lys-CC30•2HCl: 5199304
[2]; 37° C., 60 min
  % Conversion of prodrug to CC30: 44.7%
  HPLC-MS Peak Area of Prodrug, Lys-CC30•2HCl: 3678701
[2]; 37° C., 60 min, listed as Lys-CC30.2HCl
  % Conversion of prodrug to CC30: 44.7%
[2]; 37° C., 120 min
  % Conversion of prodrug to CC30: 69.2%
  HPLC-MS Peak Area of Prodrug, Lys-CC30•2HCl: 921181
[2]; 37° C., 240 min
  % Conversion of prodrug to CC30: 71.8%
  HPLC-MS Peak Area of Prodrug, Lys-CC30•2HCl: 498331
[2]; 37° C., time 0 min (on ice)
  HPLC-MS Peak Area of Prodrug, Lys-CC30•2HCl: 6182672
[2]; time 0 min, parent peak area / prodrug peak area at time 0 x 100
  % Conversion of prodrug to CC30: 10.0%
[3]
  Solubility in Water: 750 mg/mL
[4]
  Formation of cyclized product (in words): No similarly cyclized product was formed
